Measured values: patent US10590411B2, “Crude biological derivatives competent for nucleic acid detection” (APPLIED BIOSYSTEMS, LLC, priority 2002, dated 2020)

System: tissue plasminogen activator (t-PA)
Assay: t-PA mRNA level after PMA treatment, one-step real-time RT-PCR on cell lysate
Assay type: cell-based
Details: HeLa cells, 100 and 10 nM PMA, 24 hours, normalized to 18S rRNA
Experimental: FIG. 3. Illustrates an example of measuring the levels of 18S rRNA and tPA mRNA in HeLa cells that were incubated with different concentrations of PMA by one-step, real-time RT-PCR in the ABI 7700. The cells were processed in 96-well plates using the methods of the invention.
Cells were grown overnight in 0.2 ml DME media with 10% FBS with equal number of cells in each well of a 96-well plate. After an overnight incubation, phorbol myristate acetate (PMA) is added to final concentrations of 100, 10, 1, 0.1, and 0 nM in the growth medium in replicates of eight. The cells were incubated at 37° C. for 24 hours. The 96-well plate and lid were placed on the Packard MultiPROBE® II HT Liquid Handling System from PerkinElmer Life Sciences on the proper deck positions. All proceeding steps were entered into the WinPrep for automation. The growth medium was removed and the cells washed with 1×PBS. A volume of 0.1 ml Cell Lysis Buffer is added to each well. The plate was moved to a heating tile, for example, a tile at 75°, and incubated for 10 minutes. […] The plate was shaken for 2 minutes. PMSF can be used when the heating tile cannot heat the sample to 75° C. to inactivate the proteinase K. Two μl DNase I (2 U/μl) was added to each well and the plate was moved to a 37° C. heating tile. The plate was incubated for 15 minutes while shaking. […] The plate was ready for one-step RT-PCR. […]

## CCCCCCCCCCCCCC(=O)O[C@@H]1[C@@H](C)[C@@]2(O)[C@@H](C=C(CO)C[C@]3(O)C(=O)C(C)=C[C@@H]23)[C@@H]2C(C)(C)[C@]12OC(C)=O [PMA, phorbol myristate acetate]
  stimulation of t-PA: ~29 fold
